Data as given in ChEMBL document CHEMBL5247651, “Oxadiazolopyridine Derivatives as Efficacious Mitochondrial Uncouplers in the Prevention of Diet-Induced Obesity” (J Med Chem, 2023).
Values after ≈ are worked out from the molar mass of the structure shown. Active and inactive are the calls of the source. No cut-off for these calls is given here.

Tests used:
Mus musculus [1] = test: Anti-obesity activity in high-fat diet induced obesity C57BL/6 mouse model assessed as increase in carbon dioxide production at 130 mg/kg, po measured upto 4 hrs by indirect calorimetric analysis; format: functional, organism-based
[2] = Induction of mitochondrial uncoupling activity in rat L6 cells assessed as increase in oxygen consumption rate at 0.37 to 200 uM measured after 90 mins by agilent Seahorse XF analyzer relative to BAM15; format: functional; settings: dose 0.37-200 µM, 1.5 h
[3] = Cmax in C57BL/6 mouse at 10 mg/kg, po administered via gavage measured upto 24 hrs by LC/MS-MS analysis; format: ADME, organism-based; set-up: dose 10 mg/kg, time < 24 hrs, route po; settings: in vivo
[4] = Half life in C57BL/6 mouse at 10 mg/kg, po administered via gavage measured upto 24 hrs by LC/MS-MS analysis; format: ADME, organism-based; settings: in vivo
[5] = Cmax in Swiss albino mouse at 10 mg/kg, po administered via gavage measured upto 24 hrs by LC/MS-MS analysis; format: ADME, organism-based; set-up: time < 24 hrs, dose 10 mg/kg, route po; settings: in vivo
[6] = Half life in Swiss albino mouse at 10 mg/kg, po administered via gavage measured upto 24 hrs by LC/MS-MS analysis; format: ADME, organism-based; settings: in vivo
[7] = Induction of mitochondrial respiration in rat L6 cells assessed as fold increase in basal respiration upto 200 uM; format: functional
[8] = Induction of mitochondrial respiration in rat L6 cells assessed as fold increase in basal respiration at 25 uM followed by BAM15 addition; format: functional
L6 [9] = test: Induction of mitochondrial respiration in rat L6 cells assessed as fold increase in basal respiration at 25 uM in presence of oligomycin; format: functional, cell-based
L6 [10] = test: Induction of mitochondrial respiration in rat L6 cells assessed as fold increase in basal respiration at 25 uM in presence of antimycin and rotenone; format: functional, cell-based
[11] = Solubility of compound at pH 7.4; format: physicochemical; settings: buffer
[12] = Apparent permeability across basolateral to apical side in human Caco-2 cells; format: ADME, cell-based
[13] = Half life in C57BL/6 mouse at 1 mg/kg, iv measured upto 24 hrs by LC/MS-MS analysis; format: ADME, organism-based; settings: in vivo
[14] = Observed apparent volume of distribution in C57BL/6 mouse at 1 mg/kg, iv measured upto 24 hrs by LC/MS-MS analysis; format: ADME, organism-based; settings: in vivo, read-out: Vz
[15] = Observed volume of distribution at steady state in C57BL/6 mouse at 1 mg/kg, iv measured upto 24 hrs by LC/MS-MS analysis; format: ADME, organism-based; settings: in vivo, read-out: Vdss
Mus musculus [16] = test: Anti-obesity activity in high-fat diet induced obesity C57BL/6 mouse model assessed as increase in oxygen consumption at 130 mg/kg, po measured upto 4 hrs by indirect calorimetric analysis; format: functional, organism-based
Mus musculus [17] = test: Anti-obesity activity in high-fat diet induced obesity C57BL/6 mouse model assessed as increase in energy expenditure at 130 mg/kg, po measured upto 4 hrs by indirect calorimetric analysis; format: functional, organism-based
Mus musculus [18] = test: Anti-obesity activity in high-fat diet induced obesity C57BL/6 mouse model assessed as increase in locomotory activity at 130 mg/kg, po measured upto 4 hrs by indirect calorimetric analysis; format: functional, organism-based
Mus musculus [19] = test: Anti-obesity activity in high-sugar western diet induced obesity C57BL/6j mouse model assessed as decrease in body weight at 130 mg/kg per day, po administered for 14 days; format: functional, organism-based; settings: time 14.0 day
Mus musculus [20] = test: Anti-obesity activity in high-sugar western diet induced obesity C57BL/6j mouse model assessed as decrease in fat-free lean mass at 130 mg/kg per day, po administered measured after 2 weeks by EchoMRI analysis; format: functional; set-up: scale not given: the % may be the effect or the level left
Mus musculus [21] = test: Anti-obesity activity in high-sugar western diet induced obesity C57BL/6j mouse model assessed as decrease in glucose level AUC at 130 mg/kg per day, po administered measured after 10 days in presence of glucose by glucose tolerance test; format: functional, organism-based; settings: time 10.0 day
Mus musculus [22] = test: Anti-obesity activity in high-sugar western diet induced obesity C57BL/6j mouse model assessed as decrease in serum glucose level at 130 mg/kg per day, po administered measured after 2 weeks; format: functional, organism-based
Mus musculus [23] = test: Anti-obesity activity in fasted C57BL/6j mouse assessed as decrease in serum glucose level at 130 mg/kg per day, po administered measured after 2 weeks; format: functional, organism-based
Mus musculus [24] = test: Anti-obesity activity in high-sugar western diet induced obesity C57BL/6j mouse model assessed as decrease in insulin level at 130 mg/kg per day, po administered measured after 2 weeks; format: functional, organism-based
[25] = Drug distribution in fasted C57BL/6j mouse brown adipose tissue at 130 mg/kg, po by LC-MS/MS analysis; format: ADME, organism-based; settings: in vivo
[26] = Drug distribution in fasted C57BL/6j mouse […] white adipose tissue at 130 mg/kg, po by LC-MS/MS analysis; format: ADME, organism-based; settings: in vivo
[27] = Drug distribution in fasted C57BL/6j mouse white adipose tissue at 10 mg/kg, po measured after 2 hrs by LC-MS/MS analysis; format: ADME, organism-based; settings: in vivo
[28] = Drug distribution in fasted C57BL/6j mouse brown adipose tissue at 10 mg/kg, po measured after 2 hrs by LC-MS/MS analysis; format: ADME, organism-based; settings: in vivo
Mus musculus [29] = test: Anti-obesity activity in high-sugar western diet induced obesity C57BL/6j mouse model assessed as reversal of fat mass gain at 130 mg/kg per day, po administered via gavage daily measured after 3 weeks; format: functional, organism-based
Mus musculus [30] = test: Anti-obesity activity in high-sugar western diet induced obesity C57BL/6j mouse model assessed as decrease in subcutaneous fat pad weight at 130 mg/kg per day, po administered via gavage daily measured after 3 weeks; format: functional, organism-based
Mus musculus [31] = test: Anti-obesity activity in high-sugar western diet induced obesity C57BL/6j mouse model assessed as effect on fecal triglyceride level at 130 mg/kg per day, po administered via gavage daily measured after 3 weeks by colorimetric analysis; format: functional, organism-based
Mus musculus [32] = test: Anti-obesity activity in high-sugar western diet induced obesity C57BL/6j mouse model assessed as effect on free fatty acid level at 130 mg/kg per day, po administered via gavage daily measured after 3 weeks by fluorometric analysis; format: functional, organism-based
Mus musculus [33] = test: Anti-obesity activity in high-sugar western diet induced obesity C57BL/6j mouse model assessed as decrease in rectal temperature at 130 mg/kg per day, po administered via gavage daily measured after 1 hr at day 11; format: functional, organism-based
Mus musculus [34] = test: Anti-obesity activity in C57BL/6j mouse assessed as increase in glucose level at 130 mg/kg per day, po administered via gavage daily measured after 3 weeks by glucose tolerance test; format: functional, organism-based
Mus musculus [35] = test: Anti-obesity activity in C57BL/6j mouse assessed as decrease in serum glucose level at 130 mg/kg per day, po administered via gavage daily measured after 3 weeks; format: functional, organism-based
Mus musculus [36] = test: Anti-obesity activity in C57BL/6j mouse assessed as decrease in serum insulin level at 130 mg/kg per day, po administered via gavage daily measured after 3 weeks by ELISA assay; format: functional, organism-based
Mus musculus [37] = test: Anti-obesity activity in C57BL/6j mouse assessed as effect on plasma free fatty acid level at 130 mg/kg per day, po administered via gavage daily measured after 3 weeks; format: functional, organism-based
[38] = mouse, in vivo, po, 10 mg/kg, 24 h

Oc1nc2nonc2cc1Nc1c(F)c(F)c(F)c(F)c1F
Activity (Mus musculus [1]): Active | Activity [2]: 48% | Cmax [3]: 87 µM | t1/2 [4]: 1.2 h | Cmax [5]: 57 µM | t1/2 [6]: 4.4 h | fold change (FC) [7]: 2 | fold change (FC) [8]: 3 | Activity (L6 [9]): Active | Activity (L6 [10]): inactive | solubility [11]: 18.6 µM (≈ 5.92 µg/mL) | Papp B→A [12]: 1.6 ×10⁻⁶ cm/s | half-life [13]: 1.15 h | Vd [14]: 0.07 L/kg | Vd [15]: 0.06 L/kg | Activity (Mus musculus [16]): Active | Activity (Mus musculus [17]): Active | Activity (Mus musculus [18]): inactive | Activity (Mus musculus [19]): Active | Activity (Mus musculus [20]): 4% | Activity (Mus musculus [21]): Active | Activity (Mus musculus [22]): Active | Activity (Mus musculus [23]): Active | Activity (Mus musculus [24]): Active | Drug uptake [25]: Active | Drug uptake [26]: Active | Drug uptake [27]: Active | Drug uptake [28]: Active | Activity (Mus musculus [29]): Active | Activity (Mus musculus [30]): inactive | Activity (Mus musculus [31]): inactive | Activity (Mus musculus [32]): inactive | Activity (Mus musculus [33]): Active | Activity (Mus musculus [34]): inactive | Activity (Mus musculus [35]): Active | Activity (Mus musculus [36]): Active | Activity (Mus musculus [37]): inactive | F [38]: 75%
